These results are taken from ChEMBL document CHEMBL1201862, “PubChem BioAssay data set” (2004).

Common to all, as to test: NCI anticancer screen, dose series, 48 h
Experiment [1] relates to SF-268.
Experiment [2] deals with SNB-19.
In experiment [3] the test system is NCI-H522.
Experiment [4] has as its system MOLT-4.
Experiment [5] relates to EKVX.
Experiment [6] concerns NCI-H23.
For experiment [7], the system named is HCT-15.
Experiment [8] has as its system U-251.
The test system of experiment [9] is TK-10.
Experiment [10] deals with HCC 2998.
Experiment [11] relates to SK-MEL-28.
Experiment [12] has as its system SF-295.
Experiment [13] deals with DU-145.
For experiment [14], the system named is BT-549.
Experiment [15] deals with Hs-578T.
The test system of experiment [16] is MCF7.
The test system of experiment [17] is HOP-92.
Experiment [18] has as its system COLO 205.
For experiment [19], the system named is SW-620.
For experiment [20], the system named is RPMI-8226.

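Results reflect a 48-hour exposure of cells in 96-well plates to compound at five concentrations. Here, GI50 denotes the concentration required for 50% inhibition of growth.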 The source made the active and inactive calls. Rule as the data show it: active = GI50 up to about 1.1 µM and inactive = higher.

On to `CC12CCC(=O)C=C1CCC1C2C(O)CC2(C)C(c3csc(N)n3)CCC12.O=S(=O)(O)c1ccc(Br)cc1` (stereo not drawn), for which the GI50 in [1], in [2], in experiment [3], in experiment [4], in experiment [5] and in experiment [6] was > 100 µM (inactive) throughout. In addition, the GI50 is greater than 100 µM in experiment [7]; > 100 µM (inactive) in experiment [8]; > 100 µM (inactive) in experiment [9]; > 100 µM (inactive) in [10]; > 100 µM (inactive) in experiment [11]; > 100 µM (inactive) in [12]. Besides, the GI50 in experiment [13], in experiment [14], in experiment [15], in experiment [16], in experiment [17] and in experiment [18] was > 100 µM (inactive) each time. The GI50 in [19] and in experiment [20] was > 100 µM (inactive) throughout.

For `COc1ccc(-c2cc(-c3ccc(Nc4ccnc5cc(C(F)(F)F)ccc45)cc3)[nH]c(=O)c2C#N)c2ccccc12`, the GI50 was 38.1 µM (inactive) in experiment [1]; 18.8 µM (inactive) in experiment [2]; > 100 µM (inactive) in [3]; > 100 µM (inactive) in [4]; > 100 µM (inactive) in experiment [5]; 39.5 µM (inactive) in experiment [6]. The GI50 is greater than 100 µM in [7]; 10.2 µM (inactive) in experiment [8]; 26.9 µM (inactive) in experiment [9]; > 100 µM (inactive) in experiment [10]; > 59.7 µM (inactive) in experiment [11]; 25.8 µM (inactive) in experiment [12]. The GI50 is > 43.8 µM (inactive) in [13]; > 58.5 µM (inactive) in experiment [14]; 35.7 µM (inactive) in experiment [15]; > 29.5 µM (inactive) in experiment [16]; > 100 µM (inactive) in experiment [17]; > 37.7 µM (inactive) in [18]. The GI50 in experiment [19] and in [20] was > 100 µM (inactive) each time.

For the molecule `COC(=O)CN(CC1O[C@@H]2OC(C)(C)O[C@@H]2C1N=[N+]=[N-])C(=O)OCc1ccccc1` (stereo partly drawn), the GI50 in experiment [1] was > 100 µM (inactive); in experiment [2] it was > 100 µM (inactive); in experiment [3], > 100 µM (inactive); in experiment [4] it was 51.4 µM (inactive); in experiment [5], > 100 µM (inactive); in experiment [7], greater than 100 µM. In addition, the GI50 in [8], in experiment [9], in experiment [10], in experiment [11], in experiment [12] and in [13] was > 100 µM (inactive) throughout. In addition, the GI50 in [14] is > 100 µM (inactive); in experiment [15], 16 µM (inactive); in [16] it was > 100 µM (inactive); in experiment [17] it was > 100 µM (inactive); in [18], > 100 µM (inactive); in [19] it was > 100 µM (inactive). Also, the GI50 in experiment [20] was > 100 µM (inactive).

As to `CC1(C)C(=O)/C(=C/c2ccccc2)C(C)(C)C1(C)C`, the GI50 is > 100 µM (inactive) in experiment [2]; 63.2 µM (inactive) in experiment [3]; 56.2 µM (inactive) in [4]; > 58.5 µM (inactive) in experiment [5]; 70.6 µM (inactive) in experiment [6]; 54.1 µM in experiment [7]. Also, the GI50 in experiment [8] is 55.5 µM (inactive); in experiment [9], 46.6 µM (inactive); in experiment [10] it was > 91.4 µM (inactive); in experiment [11] it was > 100 µM (inactive); in experiment [12] it was > 100 µM (inactive); in experiment [13], 40.7 µM (inactive). The GI50 was 36.1 µM (inactive) in experiment [14]; 40.6 µM (inactive) in experiment [15]; 35.2 µM (inactive) in [16]; > 40 µM (inactive) in experiment [17]; > 100 µM (inactive) in experiment [18]; 60.3 µM (inactive) in experiment [19]. Besides, the GI50 in experiment [20] was 31.4 µM (inactive).

In the case of `Cc1c2cccc-2c(OCCOC(=O)n2ccnc2)cc2c1[nH]c1ccccc12`, the GI50 is 2.6 µM (inactive) in [1]; 2.65 µM (inactive) in experiment [2]; 2.14 µM (inactive) in experiment [3]; 4.12 µM (inactive) in experiment [4]; 1.04 µM (active) in experiment [5]; 2.44 µM (inactive) in experiment [6]. Further, the GI50 in experiment [7] was 2.2 µM; in experiment [9], 3.85 µM (inactive); in experiment [10] it was 2.82 µM (inactive); in experiment [11], 2.02 µM (inactive); in [12] it was 2.96 µM (inactive); in experiment [13], 6.24 µM (inactive). In addition, the GI50 is 2.89 µM (inactive) in experiment [14]; 3.55 µM (inactive) in experiment [15]; 3.24 µM (inactive) in experiment [16]; 1.7 µM (inactive) in experiment [17]; 3.08 µM (inactive) in experiment [19]; 3.48 µM (inactive) in experiment [20].

As to `COC(=O)C(Cc1ccccc1)OC(=O)C(N)CC(=O)O` (stereo not drawn), the GI50 was > 100 µM (inactive) in experiment [1]; > 100 µM (inactive) in experiment [2]; > 100 µM (inactive) in [3]; > 100 µM (inactive) in [4]; > 100 µM (inactive) in experiment [5]; 5.11 µM (inactive) in experiment [6]. Further, the GI50 was greater than 100 µM in experiment [7]; > 100 µM (inactive) in experiment [9]; > 100 µM (inactive) in experiment [10]; > 100 µM (inactive) in [11]; > 100 µM (inactive) in experiment [12]; > 100 µM (inactive) in experiment [13]. Moreover, the GI50 in experiment [14], in experiment [15], in [16], in [17], in [18] and in experiment [19] was > 100 µM (inactive) each time. Moreover, in experiment [20], the GI50 is > 100 µM (inactive).

On to `CCOC(=O)c1nc2ccccc2nc1Nc1ccc(Cl)c(Cl)c1`, for which the GI50 is 37.6 µM (inactive) in experiment [1]; 27.2 µM (inactive) in [2]; 45.7 µM (inactive) in [3]; > 100 µM (inactive) in [4]; 60.5 µM (inactive) in [5]; 33.7 µM (inactive) in experiment [6]. The GI50 in experiment [7] was greater than 100 µM; in experiment [8] it was 23.7 µM (inactive); in [9], 31.4 µM (inactive); in experiment [10] it was > 100 µM (inactive); in experiment [11] it was > 100 µM (inactive); in [13] it was > 100 µM (inactive). Further, the GI50 is 12.8 µM (inactive) in [14]; 34.4 µM (inactive) in [15]; 70 µM (inactive) in [16]; 16.8 µM (inactive) in [17]; 67.9 µM (inactive) in experiment [18]; 57.7 µM (inactive) in [20].

Consider `NCC(=O)Nc1ccc(S(=O)(=O)O)c2cc(S(=O)(=O)O)cc(S(=O)(=O)O)c12`, for which the GI50 in experiment [1], in [2], in [3], in [4], in experiment [5] and in [6] was > 100 µM (inactive) each time. The GI50 in [7] is greater than 100 µM; in [8] it was > 100 µM (inactive); in experiment [9], > 100 µM (inactive); in experiment [10], > 100 µM (inactive); in [11], > 100 µM (inactive); in [12], > 100 µM (inactive). Also, the GI50 in experiment [13], in experiment [14], in experiment [15], in experiment [16], in experiment [17] and in experiment [18] was > 100 µM (inactive) in each case. Further, the GI50 in experiment [19] and in [20] was > 100 µM (inactive) each time.

Regarding `O=S(=O)(O)c1cc(/N=N/c2cc(S(=O)(=O)O)c3cccnc3c2O)ccc1/C=C/c1ccc(/N=N/c2cc(S(=O)(=O)O)c3cccnc3c2O)cc1S(=O)(=O)O`, the GI50 is > 100 µM (inactive) in [1]; > 100 µM (inactive) in experiment [2]; > 100 µM (inactive) in [3]; 20.4 µM (inactive) in [4]; > 100 µM (inactive) in [5]; > 100 µM (inactive) in [6]. Also, the GI50 in experiment [7] was greater than 100 µM; in experiment [8] it was > 100 µM (inactive); in [9], > 100 µM (inactive); in experiment [10] it was > 100 µM (inactive); in experiment [11], > 100 µM (inactive); in experiment [12], > 100 µM (inactive). Also, the GI50 in [13] is > 100 µM (inactive); in [14], > 100 µM (inactive); in [15], > 100 µM (inactive); in experiment [16], > 100 µM (inactive); in experiment [17], > 72.4 µM (inactive); in experiment [18], > 100 µM (inactive). For the same molecule, the GI50 is > 100 µM (inactive) in [19] and > 97.7 µM (inactive) in [20].

Regarding `O=C1C2C3C=CC(C2C(=O)N1CN1CCOCC1)C1C2C(=O)N(CN4CCOCC4)C(=O)C2C31` (stereo not drawn), the GI50 in experiment [1] was > 44.5 µM (inactive); in experiment [2], > 48 µM (inactive); in experiment [3], > 40 µM (inactive); in experiment [4] it was 18.2 µM (inactive); in [5], 97.1 µM (inactive); in [6] it was > 47.9 µM (inactive). Moreover, the GI50 in experiment [7] was greater than 42.4 µM; in experiment [8], > 45.3 µM (inactive); in [9] it was > 55.3 µM (inactive); in experiment [10], > 46.5 µM (inactive); in [11], > 48.6 µM (inactive); in experiment [12], > 62.2 µM (inactive). The GI50 in experiment [13] is > 100 µM (inactive); in [14], > 100 µM (inactive); in [15] it was > 100 µM (inactive); in experiment [16], > 100 µM (inactive); in experiment [17] it was > 62.1 µM (inactive); in experiment [18], > 43 µM (inactive). Moreover, the GI50 in experiment [19] is > 46.5 µM (inactive); in experiment [20], 34.6 µM (inactive).
